In the kinase profiling compilation of Christmann-Franck et al. (2016):

Experiments:
Experiment in all cases: KINOMEscan competition binding
Conditions in all cases: compound 1.0 µM
[1] = target: AAK1 (human) (UniProt Q2M2I8)
[2] = test system: ABL1 (human), P00519 [Y253F]
[3] = target: ACVR2A (human) (UniProt P27037)
[4] = target: AKT1 (human) (UniProt P31749)
[5] = target: CAMKK2 (human) (UniProt Q96RR4)
[6] = target: CDC42BPA (human) (UniProt Q5VT25)
[7] = target: CDK7 (human) (UniProt P50613)
[8] = target: CSNK1E (human) (UniProt P49674)
[9] = target: CSNK2A1 (human) (UniProt P68400)
[10] = test system: EGFR (human), P00533 [L861Q]
[11] = test system: EGFR (human), P00533 [T790M/L858R]
[12] = target: EPHA3 (human) (UniProt P29320)
[13] = target: EPHA4 (human) (UniProt P54764)
[14] = target: ERBB3 (human) (UniProt P21860)
[15] = test system: FLT3 (human), P36888 [ITD]
[16] = target: HCK (human) (UniProt P08631)
[17] = target: IKBKE (human) (UniProt Q14164)
[18] = target: JAK1 JH1 catalytic (human) (UniProt P23458)
[19] = test system: KIT (human), P10721 [D816V]
[20] = target: MAP3K7 (human) (UniProt O43318)
[21] = target: MAP4K1 (human) (UniProt Q92918)
Sequence of MAP4K1 (human) (Q92918 whole entry, looked up): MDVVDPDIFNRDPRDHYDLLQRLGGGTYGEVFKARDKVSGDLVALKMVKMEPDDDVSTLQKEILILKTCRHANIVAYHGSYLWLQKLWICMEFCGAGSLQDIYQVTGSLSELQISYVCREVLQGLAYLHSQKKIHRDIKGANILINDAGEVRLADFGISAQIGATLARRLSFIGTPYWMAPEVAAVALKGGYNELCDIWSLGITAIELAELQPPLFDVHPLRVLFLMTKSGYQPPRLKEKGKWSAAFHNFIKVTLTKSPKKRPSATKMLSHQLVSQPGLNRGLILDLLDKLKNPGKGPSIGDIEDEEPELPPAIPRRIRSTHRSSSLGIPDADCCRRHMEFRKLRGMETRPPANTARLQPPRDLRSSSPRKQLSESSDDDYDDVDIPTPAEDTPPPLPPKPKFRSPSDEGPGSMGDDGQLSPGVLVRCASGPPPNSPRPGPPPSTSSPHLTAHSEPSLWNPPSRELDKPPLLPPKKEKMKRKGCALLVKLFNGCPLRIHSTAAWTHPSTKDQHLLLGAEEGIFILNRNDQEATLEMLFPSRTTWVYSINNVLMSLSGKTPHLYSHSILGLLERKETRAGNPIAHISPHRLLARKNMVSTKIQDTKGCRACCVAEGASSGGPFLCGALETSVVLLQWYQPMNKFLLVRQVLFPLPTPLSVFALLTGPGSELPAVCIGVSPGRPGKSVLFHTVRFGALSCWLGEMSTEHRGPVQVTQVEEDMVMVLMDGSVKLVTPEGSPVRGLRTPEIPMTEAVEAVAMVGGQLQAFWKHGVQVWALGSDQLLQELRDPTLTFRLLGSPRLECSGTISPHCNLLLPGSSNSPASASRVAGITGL

[22] = target: MAPK9 (human) (UniProt P45984)
[23] = target: MELK (human) (UniProt Q14680)
[24] = target: MKNK2 (human) (UniProt Q9HBH9)
[25] = target: NEK4 (human) (UniProt P51957)
[26] = target: NEK5 (human) (UniProt Q6P3R8)
Sequence of NEK5 (human) (Q6P3R8 whole entry, looked up): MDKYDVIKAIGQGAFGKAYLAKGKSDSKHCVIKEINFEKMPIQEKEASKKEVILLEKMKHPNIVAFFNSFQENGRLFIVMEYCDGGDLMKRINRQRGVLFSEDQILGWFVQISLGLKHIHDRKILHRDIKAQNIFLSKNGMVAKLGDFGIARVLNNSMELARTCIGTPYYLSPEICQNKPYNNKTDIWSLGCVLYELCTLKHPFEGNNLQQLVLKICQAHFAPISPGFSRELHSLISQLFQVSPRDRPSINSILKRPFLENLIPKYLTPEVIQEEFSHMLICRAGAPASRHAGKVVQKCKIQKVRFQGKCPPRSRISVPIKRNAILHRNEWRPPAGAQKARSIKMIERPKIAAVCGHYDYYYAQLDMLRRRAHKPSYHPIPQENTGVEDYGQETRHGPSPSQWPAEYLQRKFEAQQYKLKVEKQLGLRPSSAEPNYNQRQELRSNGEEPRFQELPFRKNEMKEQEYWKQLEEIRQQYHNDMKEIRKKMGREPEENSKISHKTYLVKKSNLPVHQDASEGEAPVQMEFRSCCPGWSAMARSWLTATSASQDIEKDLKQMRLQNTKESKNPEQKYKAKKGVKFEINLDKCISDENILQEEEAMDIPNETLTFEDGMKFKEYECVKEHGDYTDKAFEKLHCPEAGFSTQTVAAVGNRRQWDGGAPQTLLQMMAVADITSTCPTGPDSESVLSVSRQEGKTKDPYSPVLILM

[27] = target: NEK6 (human) (UniProt Q9HC98)
Sequence of NEK6 (human) (Q9HC98 whole entry, looked up): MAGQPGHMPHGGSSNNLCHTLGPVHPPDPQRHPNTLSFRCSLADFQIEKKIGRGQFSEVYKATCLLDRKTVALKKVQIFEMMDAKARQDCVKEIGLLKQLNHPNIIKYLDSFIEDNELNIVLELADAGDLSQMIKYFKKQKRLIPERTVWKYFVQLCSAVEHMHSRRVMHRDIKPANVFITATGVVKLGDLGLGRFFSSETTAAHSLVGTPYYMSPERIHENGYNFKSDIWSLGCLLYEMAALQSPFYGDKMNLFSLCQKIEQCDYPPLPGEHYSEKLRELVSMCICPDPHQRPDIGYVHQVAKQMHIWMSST

[28] = target: NEK7 (human) (UniProt Q8TDX7)
Sequence of NEK7 (human) (Q8TDX7 whole entry, looked up): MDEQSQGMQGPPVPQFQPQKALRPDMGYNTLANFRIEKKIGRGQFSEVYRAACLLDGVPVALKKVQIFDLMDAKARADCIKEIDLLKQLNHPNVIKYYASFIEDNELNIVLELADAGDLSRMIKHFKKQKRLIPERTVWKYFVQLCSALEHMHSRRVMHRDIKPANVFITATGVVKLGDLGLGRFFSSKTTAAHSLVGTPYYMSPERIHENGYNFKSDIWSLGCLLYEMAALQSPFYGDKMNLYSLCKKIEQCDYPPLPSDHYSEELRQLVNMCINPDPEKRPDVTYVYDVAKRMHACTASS

[29] = target: NIM1 (human) (UniProt Q8IY84)
[30] = target: PDPK1 (human) (UniProt O15530)
[31] = test system: PIK3CA (human), P42336 [E545K]
Sequence of PIK3CA (human), P42336 [E545K] (P42336 whole entry E545K, looked up): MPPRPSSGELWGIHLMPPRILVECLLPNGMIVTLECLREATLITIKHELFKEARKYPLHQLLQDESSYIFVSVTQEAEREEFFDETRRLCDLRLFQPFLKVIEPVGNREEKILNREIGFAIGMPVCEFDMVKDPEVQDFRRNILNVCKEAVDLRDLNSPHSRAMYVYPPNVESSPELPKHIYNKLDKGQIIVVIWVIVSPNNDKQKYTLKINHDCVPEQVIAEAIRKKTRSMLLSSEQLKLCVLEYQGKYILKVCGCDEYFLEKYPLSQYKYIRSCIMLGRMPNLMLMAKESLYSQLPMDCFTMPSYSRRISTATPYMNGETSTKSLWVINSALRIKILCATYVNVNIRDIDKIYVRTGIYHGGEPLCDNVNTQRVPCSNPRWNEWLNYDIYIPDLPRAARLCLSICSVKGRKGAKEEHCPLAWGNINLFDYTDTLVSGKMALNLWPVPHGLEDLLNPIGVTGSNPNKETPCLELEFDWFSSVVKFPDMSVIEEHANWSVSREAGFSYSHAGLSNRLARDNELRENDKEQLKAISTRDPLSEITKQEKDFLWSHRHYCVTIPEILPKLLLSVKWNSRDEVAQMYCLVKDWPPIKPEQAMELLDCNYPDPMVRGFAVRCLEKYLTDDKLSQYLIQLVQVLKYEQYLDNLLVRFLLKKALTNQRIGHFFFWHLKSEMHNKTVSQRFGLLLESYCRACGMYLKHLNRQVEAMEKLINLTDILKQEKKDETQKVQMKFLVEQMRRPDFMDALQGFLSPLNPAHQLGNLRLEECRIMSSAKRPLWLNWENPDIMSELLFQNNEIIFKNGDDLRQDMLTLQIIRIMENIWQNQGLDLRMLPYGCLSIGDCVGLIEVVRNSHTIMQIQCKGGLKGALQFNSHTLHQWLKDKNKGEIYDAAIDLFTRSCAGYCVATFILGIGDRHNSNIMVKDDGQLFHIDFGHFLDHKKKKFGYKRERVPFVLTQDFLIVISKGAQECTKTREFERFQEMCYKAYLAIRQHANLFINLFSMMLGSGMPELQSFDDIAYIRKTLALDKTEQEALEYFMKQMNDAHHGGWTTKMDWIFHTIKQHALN

[32] = target: PLK3 (human) (UniProt Q9H4B4)
Sequence of PLK3 (human) (Q9H4B4 whole entry, looked up): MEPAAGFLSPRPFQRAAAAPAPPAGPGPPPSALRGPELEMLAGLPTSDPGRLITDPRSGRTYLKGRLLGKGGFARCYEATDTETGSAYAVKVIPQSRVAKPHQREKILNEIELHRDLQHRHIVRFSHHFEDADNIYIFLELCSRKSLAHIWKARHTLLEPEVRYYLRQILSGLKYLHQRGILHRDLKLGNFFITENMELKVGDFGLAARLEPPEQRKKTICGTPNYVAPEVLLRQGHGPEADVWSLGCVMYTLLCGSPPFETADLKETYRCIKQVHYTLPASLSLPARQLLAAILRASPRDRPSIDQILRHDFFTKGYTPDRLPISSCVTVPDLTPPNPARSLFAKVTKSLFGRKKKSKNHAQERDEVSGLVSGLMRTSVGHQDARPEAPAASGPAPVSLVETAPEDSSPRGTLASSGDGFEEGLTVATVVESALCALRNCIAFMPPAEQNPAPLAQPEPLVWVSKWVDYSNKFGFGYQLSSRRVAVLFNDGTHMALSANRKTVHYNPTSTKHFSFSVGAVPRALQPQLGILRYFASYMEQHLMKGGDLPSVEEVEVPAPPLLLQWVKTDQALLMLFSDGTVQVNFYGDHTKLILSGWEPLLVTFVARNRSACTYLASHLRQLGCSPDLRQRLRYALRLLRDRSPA

[33] = target: PRPF4B (human) (UniProt Q13523)
[34] = target: RET (human) (UniProt P07949)
[35] = target: RIOK3 (human) (UniProt O14730)
[36] = target: RPS6KA5 KD2 (human) (UniProt O75582)
[37] = target: SRPK2 (human) (UniProt P78362)
[38] = target: STK32A (human) (UniProt Q8WU08)
[39] = target: STK38 (human) (UniProt Q15208)
[40] = target: TGFBR1 (human) (UniProt P36897)
[41] = target: TYK2 JH1 catalytic (human) (UniProt P29597)
Sequence of TYK2 JH1 catalytic (human) (P29597 whole entry, looked up): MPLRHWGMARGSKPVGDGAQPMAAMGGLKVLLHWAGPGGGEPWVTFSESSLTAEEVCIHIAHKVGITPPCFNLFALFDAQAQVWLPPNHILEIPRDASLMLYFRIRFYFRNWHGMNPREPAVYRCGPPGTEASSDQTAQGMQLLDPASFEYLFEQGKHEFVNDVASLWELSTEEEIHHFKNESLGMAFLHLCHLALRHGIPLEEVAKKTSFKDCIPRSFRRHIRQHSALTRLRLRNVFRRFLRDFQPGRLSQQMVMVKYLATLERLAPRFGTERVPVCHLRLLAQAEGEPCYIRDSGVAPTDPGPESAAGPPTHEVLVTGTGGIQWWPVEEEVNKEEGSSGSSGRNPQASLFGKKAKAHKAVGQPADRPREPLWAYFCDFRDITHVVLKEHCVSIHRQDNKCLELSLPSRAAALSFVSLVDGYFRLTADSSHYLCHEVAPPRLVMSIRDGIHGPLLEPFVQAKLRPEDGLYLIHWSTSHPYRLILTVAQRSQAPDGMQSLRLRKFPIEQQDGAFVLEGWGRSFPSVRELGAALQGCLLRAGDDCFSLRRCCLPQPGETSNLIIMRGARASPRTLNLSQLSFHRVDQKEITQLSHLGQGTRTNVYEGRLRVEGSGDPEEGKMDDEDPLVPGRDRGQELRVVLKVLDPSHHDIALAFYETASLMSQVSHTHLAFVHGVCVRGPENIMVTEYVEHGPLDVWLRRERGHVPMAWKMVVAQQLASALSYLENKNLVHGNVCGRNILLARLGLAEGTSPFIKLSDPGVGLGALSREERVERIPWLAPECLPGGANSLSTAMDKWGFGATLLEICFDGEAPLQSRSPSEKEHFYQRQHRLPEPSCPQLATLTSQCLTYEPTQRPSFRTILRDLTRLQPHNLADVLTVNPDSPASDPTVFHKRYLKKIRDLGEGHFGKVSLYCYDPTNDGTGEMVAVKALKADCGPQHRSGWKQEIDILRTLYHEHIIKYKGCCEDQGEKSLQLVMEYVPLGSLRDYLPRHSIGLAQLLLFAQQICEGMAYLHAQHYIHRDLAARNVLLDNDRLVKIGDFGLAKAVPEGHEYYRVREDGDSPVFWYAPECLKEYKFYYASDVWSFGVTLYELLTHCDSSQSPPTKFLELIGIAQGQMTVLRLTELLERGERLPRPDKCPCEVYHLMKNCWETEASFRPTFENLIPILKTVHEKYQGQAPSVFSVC

[42] = target: ULK1 (human) (UniProt O75385)
[43] = target: ULK3 (human) (UniProt Q6PHR2)

COCCNCCCn1c(C(=O)CF)c(-c2ccc(C)cc2)c2c(N)ncnc21 showed a kinase still bound, per cent of control [1] of 95%, a kinase still bound, per cent of control [2] of 94% and a kinase still bound, per cent of control [3] of 100%. The kinase still bound, per cent of control [4] was 100%, the kinase still bound, per cent of control [5] was 100% and the kinase still bound, per cent of control [6] was 92%. It also gave a kinase still bound, per cent of control [7] of 100%, a kinase still bound, per cent of control [8] of 87% and a kinase still bound, per cent of control [9] of 100%. For the same compound, the kinase still bound, per cent of control [10] was 84%, the kinase still bound, per cent of control [11] was 100% and the kinase still bound, per cent of control [12] was 88%. The kinase still bound, per cent of control [13] was 96%, the kinase still bound, per cent of control [14] was 96% and the kinase still bound, per cent of control [15] was 91%. For the same compound, the kinase still bound, per cent of control [16] was 100%, the kinase still bound, per cent of control [17] was 100% and the kinase still bound, per cent of control [18] was 100%. For the same compound, the kinase still bound, per cent of control [19] was 96%, the kinase still bound, per cent of control [20] was 100% and the kinase still bound, per cent of control [21] was 86%. For the same compound, the kinase still bound, per cent of control [22] was 94%, the kinase still bound, per cent of control [23] was 95% and the kinase still bound, per cent of control [24] was 92%. It also gave a kinase still bound, per cent of control [25] of 100%, a kinase still bound, per cent of control [26] of 100% and a kinase still bound, per cent of control [27] of 100%. The kinase still bound, per cent of control [28] was 100%, the kinase still bound, per cent of control [29] was 100% and the kinase still bound, per cent of control [30] was 100%. It also gave a kinase still bound, per cent of control [31] of 100%, a kinase still bound, per cent of control [32] of 91% and a kinase still bound, per cent of control [33] of 100%. It also gave a kinase still bound, per cent of control [34] of 88%, a kinase still bound, per cent of control [35] of 68% and a kinase still bound, per cent of control [36] of 98%. The kinase still bound, per cent of control [37] was 100%, the kinase still bound, per cent of control [38] was 94% and the kinase still bound, per cent of control [39] was 100%. The kinase still bound, per cent of control [40] was 89%, the kinase still bound, per cent of control [41] was 100% and the kinase still bound, per cent of control [42] was 100%. It also gave a kinase still bound, per cent of control [43] of 99%.
